The target of the assay is T1, FLT4 (VEGFR3) (Homo sapiens, UniProt P35916).
T1 construct: purchased Thermo Fisher Scientific (Life Technologies) SelectScreen
The experiment in a line: SelectScreen Z'LYTE. The format is biochemical. The procedure, abridged: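 NU5455 was profiled across the SelectScreen Broad panel of kinase activity and binding assays. Z'LYTE reactions such as CSF1R ran at apparent Km ATP, while the Adapta CAMK1 assay used ATP listed as 10. Values are given as percent.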

In publication PMC6934184, “Selective DNA-PKcs inhibition extends the therapeutic index of localized radiotherapy and chemotherapy” (The Journal of Clinical Investigation, 2019) one finds inhibition data, which are given here for 1 molecule.

T1 sequence (P35916 25-1363): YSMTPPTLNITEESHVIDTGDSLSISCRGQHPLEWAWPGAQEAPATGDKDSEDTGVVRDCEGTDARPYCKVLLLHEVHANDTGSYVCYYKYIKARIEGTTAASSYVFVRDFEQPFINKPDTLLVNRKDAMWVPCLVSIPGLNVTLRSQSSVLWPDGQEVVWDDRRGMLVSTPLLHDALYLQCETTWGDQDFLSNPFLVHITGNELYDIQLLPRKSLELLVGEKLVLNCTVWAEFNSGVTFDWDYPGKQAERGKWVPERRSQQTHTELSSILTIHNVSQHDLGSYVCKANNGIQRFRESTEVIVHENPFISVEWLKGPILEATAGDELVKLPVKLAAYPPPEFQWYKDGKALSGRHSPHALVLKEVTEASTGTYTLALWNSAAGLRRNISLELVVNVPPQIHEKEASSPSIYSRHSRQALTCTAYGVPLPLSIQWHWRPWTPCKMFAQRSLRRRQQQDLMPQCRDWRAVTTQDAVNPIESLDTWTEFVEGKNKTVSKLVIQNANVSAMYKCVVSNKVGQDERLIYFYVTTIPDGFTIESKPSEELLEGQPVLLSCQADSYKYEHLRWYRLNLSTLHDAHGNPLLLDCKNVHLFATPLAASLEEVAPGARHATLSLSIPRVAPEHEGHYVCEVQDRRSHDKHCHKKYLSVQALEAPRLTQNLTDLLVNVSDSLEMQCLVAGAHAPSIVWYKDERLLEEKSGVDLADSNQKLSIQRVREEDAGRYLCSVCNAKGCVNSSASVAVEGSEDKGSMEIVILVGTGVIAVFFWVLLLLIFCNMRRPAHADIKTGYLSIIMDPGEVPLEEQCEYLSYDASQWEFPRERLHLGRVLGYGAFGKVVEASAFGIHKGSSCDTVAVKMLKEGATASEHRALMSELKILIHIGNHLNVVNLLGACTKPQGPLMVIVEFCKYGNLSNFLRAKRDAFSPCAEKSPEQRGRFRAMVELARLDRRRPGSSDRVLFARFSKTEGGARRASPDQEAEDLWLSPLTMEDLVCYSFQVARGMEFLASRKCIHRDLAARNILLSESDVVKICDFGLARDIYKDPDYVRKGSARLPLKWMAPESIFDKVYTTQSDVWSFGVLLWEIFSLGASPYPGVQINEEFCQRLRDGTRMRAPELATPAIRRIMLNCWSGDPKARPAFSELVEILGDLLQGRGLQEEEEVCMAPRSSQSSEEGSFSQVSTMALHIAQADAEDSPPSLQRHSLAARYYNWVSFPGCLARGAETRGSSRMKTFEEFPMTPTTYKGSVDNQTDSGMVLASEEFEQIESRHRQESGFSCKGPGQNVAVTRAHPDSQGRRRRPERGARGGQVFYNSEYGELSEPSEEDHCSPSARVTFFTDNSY

The inhibition is the change of the read-out against control, counted positive when it falls. A high value points to strong suppression. For the molecule `CN(C(=O)CN1CCOCC1)c1ccc2sc3c(-c4cccc5c(=O)cc(N6CC7CCC(C6)O7)oc45)cccc3c2c1` [NU5455], the inhibition at 1 µM amounted to 3.5%.
